Earlier results as cited in US20220212015A1, “SURGICAL SYSTEM AND METHODS OF USE” (priority 2021, published 2022).

Test system: myofibroblast formation
Conditions: Ajmal et al. (2003)

O=S(=O)([O-])CCS.[Na+] [MESNA, sodium 2-mercaptoethane sulfonate]
effect on myofibroblast formation: diminish myofibroblast formation
